pIC50: −log10 of the molar value.
target: T1, P2X7 receptor (Homo sapiens, UniProt Q99572); assay: P2X7 calcium mobilization assay, high throughput, antagonist activity (Example 4A); format: cell-based; conditions: 50% decrease in the fluorescence response of cells exposed to 80 μM of 2′(3′)-O-(4-benzoyl-benzoyl)adenosine 5′-triphosphate; Example 4A; read-out: IC50
T1 construct: host or cells: SH-SY5Y
T1 sequence (Q99572 1-595): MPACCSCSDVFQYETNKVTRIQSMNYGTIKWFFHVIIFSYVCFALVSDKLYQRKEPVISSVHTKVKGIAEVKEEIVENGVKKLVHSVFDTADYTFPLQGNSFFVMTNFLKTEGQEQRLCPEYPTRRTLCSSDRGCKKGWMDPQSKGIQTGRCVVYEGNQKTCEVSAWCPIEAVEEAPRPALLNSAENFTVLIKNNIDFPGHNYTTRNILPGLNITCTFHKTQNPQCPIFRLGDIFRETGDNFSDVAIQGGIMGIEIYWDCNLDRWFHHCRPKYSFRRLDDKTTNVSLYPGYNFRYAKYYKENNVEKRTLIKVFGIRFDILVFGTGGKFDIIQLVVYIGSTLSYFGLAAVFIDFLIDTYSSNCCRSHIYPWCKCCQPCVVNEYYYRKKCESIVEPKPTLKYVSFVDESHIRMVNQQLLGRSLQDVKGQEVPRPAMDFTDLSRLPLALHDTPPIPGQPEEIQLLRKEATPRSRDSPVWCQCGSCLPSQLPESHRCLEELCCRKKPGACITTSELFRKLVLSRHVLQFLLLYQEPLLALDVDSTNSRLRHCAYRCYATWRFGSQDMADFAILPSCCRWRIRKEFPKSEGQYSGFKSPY
Summary of the method: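 Dye-loaded cells (100,000/well, seeded previous day) are pre-exposed to compound for an hour at room temperature. Fluorescence maxima are baseline-corrected against no-agonist wells and compared with the averaged agonist-well maximum.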

pIC50	SMILES
> 5.70	CC(C)(O)C1CCCCN1C(=O)c1cn2c(C(=O)NCC34CC5CC(CC(C5)C3)C4)cccc2n1 (centres unmarked) [Compound 702, N-(adamantan-1-ylmethyl)-2-{[2-(1-hydroxy-1-methylethyl)piperidin-1-yl]carbonyl}imidazo[1,2-a]pyridine-5-carboxamide]
> 5.70	CN(C)CCNC(=O)C1CCCN(C(=O)c2cn3c(C(=O)NCC45CC6CC(CC(C6)C4)C5)cccc3n2)C1 (centres unmarked) [Compound 704, N-(adamantan-1-ylmethyl)-2-[(3-{[2-(dimethylamino)ethyl]carbamoyl}piperidin-1-yl)carbonyl]imidazo[1,2-a]pyridine-5-carboxamide]
> 5.70	N#CCC1CCN(C(=O)c2cn3c(C(=O)NCC45CC6CC(CC(C6)C4)C5)cccc3n2)CC1 [Compound 705, N-(adamantan-1-ylmethyl)-2-{[4-(cyanomethyl)piperidin-1-yl]carbonyl} imidazo[1,2-a]pyridine-5-carboxamide]
> 5.70	CN1CCN(C)C(CN(C)C(=O)c2cn3c(C(=O)NCC45CC6CC(CC(C6)C4)C5)cccc3n2)C1 (centres unmarked) [Compound 706, 5-N-(adamantan-1-ylmethyl)-2-N-[(l,4-dimethylpiperazin-2-yl)methyl]-2-N-methylimidazo[1,2-a]pyridine-2,5-dicarboxamide]
> 5.70	CN(CC1CCCCN1C)C(=O)c1cn2c(C(=O)NCC34CC5CC(CC(C5)C3)C4)cccc2n1 (centres unmarked) [Compound 707, 5-N-(adamantan-1-ylmethyl)-2-N-methyl-2-N-[(1-methylpiperidin-2-yl)methyl]imidazo[1,2-a]pyridine-2,5-dicarboxamide]
> 5.70	COCc1ccc(CN(C)C(=O)c2cn3c(C(=O)NCC45CC6CC(CC(C6)C4)C5)cccc3n2)nc1 [Compound 710, 5-N-(adamantan-1-ylmethyl)-2-N-{[5-(methoxymethyl)pyridin-2-yl]methyl}-2-N-methylimidazo[1,2-a]pyridine-2,5-dicarboxamide]
> 5.70	CN(Cc1ccc(C(F)(F)F)cn1)C(=O)c1cn2c(C(=O)NCC34CC5CC(CC(C5)C3)C4)cccc2n1 [Compound 711, 5-N-(adamantan-1-ylmethyl)-2-N-methyl-2-N-{[5-(trifluoromethyl)pyridin-2-yl]methyl}imidazo[1,2-a]pyridine-2,5-dicarboxamide]
> 5.70	CCc1ccc(CN(C)C(=O)c2cn3c(C(=O)NCC45CC6CC(CC(C6)C4)C5)cccc3n2)cn1 [Compound 712, 5-N-(adamantan-1-ylmethyl)-2-N-[(6-ethylpyridin-3-yl)methyl]-2-N-methylimidazo[1,2-a]pyridine-2,5-dicarboxamide]
> 5.70	CCc1ccc(CN(C)C(=O)c2cn3c(C(=O)NCC45CC6CC(CC(C6)C4)C5)cccc3n2)nc1 [Compound 713, 5-N-(adamantan-1-ylmethyl)-2-N-[(5-ethylpyridin-2-yl)methyl]-2-N-methylimidazo[1,2-a]pyridine-2,5-dicarboxamide]
> 5.70	O=C(NCC12CC3CC(CC(C3)C1)C2)c1cccc2nc(C(=O)N3CCCN(C4CCC4)CC3)cn12 [Compound 714, N-(adamantan-1-ylmethyl)-2-[(4-cyclobutyl-1,4-diazepan-1-yl)carbonyl]imidazo[1,2-a]pyridine-5-carboxamide]
> 5.70	CCN(Cc1ccc(C2=NCCN2)cc1)C(=O)c1cn2c(C(=O)NCC34CC5CC(CC(C5)C3)C4)cccc2n1 [Compound 715, 5-N-(adamantan-1-ylmethyl)-2-N-[4-(4,5-dihydro-1H-imidazol-2-yl)benzyl]-2-N-ethylimidazo[1,2-a]pyridine-2,5-dicarboxamioe]
> 5.70	CC(C)c1ccc(CN(C)C(=O)c2cn3c(C(=O)NCC45CC6CC(CC(C6)C4)C5)cccc3n2)nc1 [Compound 716, 5-N-(adamantan-1-ylmethyl)-2-N-[(5-isopropylpyridin-2-yl)methyl]-2-N-methylimidazo[1,2-a]pyridine-2,5-dicarboxamide]
> 5.70	CC(C)c1ccc(CN(C)C(=O)c2cn3c(C(=O)NCC45CC6CC(CC(C6)C4)C5)cccc3n2)cn1 [Compound 717, 5-N-(adamantan-1-ylmethyl)-2-N-[(6-isopropylpyridin-3-yl)methyl]-2-N-methylimidazo[1,2-a]pyridine-2,5-dicarboxamide]
> 5.70	Cn1cc2c(n1)CCN(C(=O)c1cn3c(C(=O)NCC45CC6CC(CC(C6)C4)C5)cccc3n1)C2 [Compound 718, N-(adamantan-1-ylmethyl)-2-[(2-methyl-2,4,6,7-tetrahydro-5H-pyrazolo[4,3-c]pyridin-5-yl)carbonyl]imidazo[1,2-a]pyridine-5-carboxamide]
> 5.70	O=C(NCC12CC3CC(CC(C3)C1)C2)c1cccc2nc(C(=O)N3CCC(N4CCCC4)C3)cn12 (centres unmarked) [Compound 719, N-(adamantan-1-ylmethyl)-2-(1,3′-bipyrrolidin-1′-ylcarbonyl)imidazo [1,2-a]pyridine-5-carboxamide]
> 5.70	COCCN(C)C1CCN(C(=O)c2cn3c(C(=O)NCC45CC6CC(CC(C6)C4)C5)cccc3n2)CC1 [Compound 720, N-(adamantan-1-ylmethyl)-2-({4-[(2-methoxyethyl)(methyl)amino]piperidin-1-yl}carbonyl)imidazo[l, 2-a]pyridine-5-carboxamide]
> 5.70	O=C(NCC12CC3CC(CC(C3)C1)C2)c1cccc2nc(C(=O)N3CCN(C4CCOCC4)CC3)cn12 [Compound 721, N-(adamantan-1-ylmethyl)-2-{[4-(tetrahydro-2H-pyran-4-yl)piperazin-1-yl]carbonyl}imidazo[1,2-a]pyridine-5-carboxamide]
> 5.70	Cn1ncc2c1CCN(C(=O)c1cn3c(C(=O)NCC45CC6CC(CC(C6)C4)C5)cccc3n1)C2 [Compound 723, N-(adamantan-1-ylmethyl)-2-[(1-methyl-1,4,6,7-tetrahydro-5H-pyrazolo[4,3-c]pyridin-5-yl)carbonyl]imidazo[1,2-a]pyridine-5-carboxamide]
> 5.70	N[C@@H]1CCCN(C(=O)c2cn3c(C(=O)NCC45CC6CC(CC(C6)C4)C5)cccc3n2)C1 [Compound 724, N-(adamantan-1-ylmethyl)-2-{[(3R)-3-aminopiperidin-1-yl]carbonyl}imidazo[1,2-a]pyridine-5-carboxamide]
> 5.70	N[C@@H]1CCN(C(=O)c2cn3c(NC(=O)CC45CC6CC(CC(C6)C4)C5)cccc3n2)C1 [Compound 725, 2-adamantan-1-yl-N-(2-{[(3R)-3-aminopyrrolidin-1-yl]carbonyl}imidazo[1,2-a]pyridin-5-yl)acetamide]
> 5.70	O=C(NCC12CC3CC(CC(C3)C1)C2)c1cccc2nc(CC(=O)N3CC[C@@H](NCCO)C3)cn12 [Compound 726, N-(adamantan-1-ylmethyl)-2-(2-{(3R)-3-[(2-hydroxyethyl)amino]pyrrolidin-1-yl}-2-oxoethyl) imidazo[1,2-a]pyridine-5-carboxamide]
> 5.70	O=C(NCC12CC3CC(CC(C3)C1)C2)c1cccc2nc(Cn3cnnn3)cn12 [Compound 727, N-(adamantan-1-ylmethyl)-2-(1H-tetrazol-1-ylmethyl) imidazo[1,2-a]pyridine-5-carboxamide]
> 5.70	CCOC(=O)C(Cc1cn2c(C(=O)NCC34CC5CC(CC(C5)C3)C4)cccc2n1)C(=O)OC(C)(C)C (centres unmarked) [Compound 728, tert-butyl ethyl ({5-[(adamantan-1-ylmethyl)carbamoyl]imidazo[1,2-a]pyridin-2-yl}methyl)malonate]
> 5.70	CC(C)CC(CNC(=O)c1cccc2nc(Cn3ccccc3=O)cn12)c1cccnc1 (centres unmarked) [Compound 729, N-(4-methyl-2-pyridin-3-ylpentyl)-2-[(2-oxopyridin-1(2H)-yl)methyl] imidazo[1,2-a]pyridine-5-carboxamide]
> 5.70	O=C(NCC12CC3CC(CC(C3)C1)C2)c1cccc2nc(C(Cc3cccnc3)C(=O)O)cn12 (centres unmarked) [Compound 730, 2-{5-[(adamantan-1-ylmethyl)carbamoyl]imidazo[1,2-a]pyridin-2-yl}-3-pyridin-3-ylpropanoic acid]
> 5.70	CC(C)(Cc1cn2c(C(=O)NCC34CC5CC(CC(C5)C3)C4)cccc2n1)C(=O)O [Compound 731, 3-{5-[(adamantan-1-ylmethyl)carbamoyl]imidazo[1,2-a]pyridin-2-yl}-2,2-dimethylpropanoic acid]
> 5.70	O=C(NCC12CC3CC(CC(C3)C1)C2)c1cccc2nc(C(Cc3ccccn3)C(=O)O)cn12 (centres unmarked) [Compound 732, 2-{5-[(adamantan-1-ylmethyl)carbamoyl]imidazo[1,2-a]pyridin-2-yl}-3-pyridin-2-ylpropanoic acid]
> 5.70	O=C(NCC12CC3CC(CC(C3)C1)C2)c1cccc2nc(CC3(C(=O)O)SCCS3)cn12 [Compound 733, 2-({5-[(adamantan-1-ylmethyl)carbamoyl]imidazo[1,2-a]pyridin-2-yl}methyl)-1,3-dithiolane-2-carboxylic acid]
> 5.70	O=C(NCC12CC3CC(CC(C3)C1)C2)c1cccc2nc(C(Cc3ccncc3)C(=O)O)cn12 (centres unmarked) [Compound 734, 2-{5-[(adamantan-1-ylmethyl)carbamoyl]imidazo[1,2-a]pyridin-2-yl}-3-pyridia-4-ylpropanoic acid]
